The record followed here is patent US11926628B2 (Gilead Sciences, Inc., priority 2021, dated 2024).

Structures are written as SMILES.

The target of one assay is human DGKα (Homo sapiens (Human), UniProt P23743). The assay is described as follows: DGKα Biochemical Activity Assay (ADP-Glo). Particulars: recombinant DGKα 1 nM, 100 μM ATP, 18:1 DAG/POPS/octylglucoside micelles, 1 hour at 25° C.; geometric mean; read-out: HTBS DGKa 1X ATP KM IC50. The procedure, abridged:
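Recombinant DGKα (1 nM final) was preincubated with compound for 15 min, then reacted for 1 h at 25 °C with 100 μM ATP and octylglucoside micelles of 0.85 mM 18:1 DAG and 6.75 mM POPS in pH 7.2 MOPS with 5 mM MgCl2. ADP formed was read by ADP-Glo luminescence. IC50 came from four-parameter fits normalized to DMSO and 50 μM CU3, and values were geometric means.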
(In general: ADP-Glo turns the ADP formed in a reaction into a luminescent signal.)

Assay [1] deals with Jurkat NFκB-luciferase cells. The assay is described as follows: Jurkat NFκB-Luciferase Assay. It counts as cell-based. The following applies: Homo sapiens; Jurkat NFκB-luciferase cells activated with anti-CD3 antibody (OKT3), 2.5 hrs at 37° C.; geometric mean; read-out: DGK NFKb Luciferase EC50. The procedure, abridged: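 Jurkat NFκB-luciferase reporter cells stimulated on plate-bound anti-CD3 (5 ug/ml coating) with compound, 2.5 hrs at 37° C then 30 min at 25° C; luminescence read with One-Glo Ex. Normalized to DMSO (basal) and 1 micromolar compound (maximum) controls; EC50 from four-parameter fit, geometric mean across experiments.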

human DGKα, sequence (P23743 whole entry): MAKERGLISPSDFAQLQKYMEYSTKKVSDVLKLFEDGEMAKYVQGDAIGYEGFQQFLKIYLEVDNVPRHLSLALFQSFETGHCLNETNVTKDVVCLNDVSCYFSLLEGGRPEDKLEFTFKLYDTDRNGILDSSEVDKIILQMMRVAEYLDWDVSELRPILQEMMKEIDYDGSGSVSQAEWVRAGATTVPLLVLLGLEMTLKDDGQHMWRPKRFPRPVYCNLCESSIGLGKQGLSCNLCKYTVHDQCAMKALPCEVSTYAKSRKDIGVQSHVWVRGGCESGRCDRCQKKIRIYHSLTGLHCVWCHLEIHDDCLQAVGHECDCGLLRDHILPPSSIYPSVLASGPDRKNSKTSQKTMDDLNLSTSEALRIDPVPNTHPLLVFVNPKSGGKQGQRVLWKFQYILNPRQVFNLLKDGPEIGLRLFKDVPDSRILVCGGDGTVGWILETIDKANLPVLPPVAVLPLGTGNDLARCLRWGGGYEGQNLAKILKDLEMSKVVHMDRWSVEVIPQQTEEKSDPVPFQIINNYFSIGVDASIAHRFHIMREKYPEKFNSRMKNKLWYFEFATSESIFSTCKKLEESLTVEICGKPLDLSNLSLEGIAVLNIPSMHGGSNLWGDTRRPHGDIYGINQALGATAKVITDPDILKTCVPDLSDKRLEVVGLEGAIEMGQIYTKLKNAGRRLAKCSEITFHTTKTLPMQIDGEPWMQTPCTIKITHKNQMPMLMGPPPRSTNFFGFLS

As a reminder, the IC50 is the concentration that gives 50% inhibition. A word on the EC50: it is the concentration that produces a half-maximal response. Consider `CC(C)(O)C#Cc1cc(F)cc(N(CC(F)F)c2nc3nncn3c3cncc(F)c23)c1` [Example 42, 4-(3-((2,2-difluoroethyl)(6-fluoropyrido[4,3-e][1,2,4]triazolo[4,3-a]pyrimidin-5-yl)amino)-5-fluorophenyl)-2-methylbut-3-yn-2-ol], for which, on human DGKα, the IC50 turned out to be 35.4 nM. Moreover, in assay [1], the EC50 turned out to be 43 nM.
The corresponding values for `Cc1nnc2nc(N(CC(F)F)c3cc(F)cc(C#CC(C)(C)O)c3)c3c(F)cncc3n12` [Example 48, 4-(3-((2,2-difluoroethyl)(6-fluoro-1-methylpyrido[4,3-e][1,2,4]triazolo[4,3-a]pyrimidin-5-yl)amino)-5-fluorophenyl)-2-methylbut-3-yn-2-ol] are 48.9 nM and 97.2 nM.
Take `Cc1nnc2nc(N3CCCc4c(C#CC(C)(C)C(F)(F)F)cccc43)c3ncccc3n12` [Example 21, 3-methyl-8-[5-(4,4,4-trifluoro-3,3-dimethyl-but-1-ynyl)-3,4-dihydro-2H-quinolin-1-yl]-2,4,5,7,10-pentazatricyclo[7.4.0.02,6]trideca-1(13),3,5,7,9,11-hexaene]: on human DGKα, the 50% inhibitory concentration (IC50) was found to be 73.9 nM. Further, the concentration for a half-maximal effect (EC50) in assay [1] was determined as 12.5 nM.
The matching figures for `CN(c1cc(F)cc(-c2cnc(C3CC3)cn2)c1)c1nc2nnnn2c2cc(Cl)ccc12` [Example 4, 8-chloro-N-(3-(5-cyclopropylpyrazin-2-yl)-5-fluorophenyl)-N-methyltetrazolo[1,5-a]quinazolin-5-amine]: 27.6 nM and 0.669 nM.
The corresponding values for `Cc1nnc2nc(N3CCCc4c(C#CC5(CF)CC5)cccc43)c3ncccc3n12` [Example 26, 5-(5-((1-(fluoromethyl)cyclopropyl)ethynyl)-3,4-dihydroquinolin-1(2H)-yl)-1-methylpyrido[2,3-e][1,2,4]triazolo[4,3-a]pyrimidine] are 21.2 nM and 8.37 nM.
The corresponding values for `CCC(C)(O)C#Cc1cccc2c1CCCN2c1nc2nncn2c2ncc(F)cc12` (stereo not drawn) [Example 148, 1-(1-(3-fluoropyrido[3,2-e][1,2,4]triazolo[4,3-a]pyrimidin-5-yl)-1,2,3,4-tetrahydroquinolin-5-yl)-3-methylpent-1-yn-3-ol] are 13.7 nM and 20.7 nM.
For `CN(c1cccc(C#CC(C)(C)O)c1)c1nc2nncn2c2ncc(F)cc12` [Example 153], at human DGKα, the IC50 came out at 29.4 nM. Moreover, the EC50 in assay [1] was 45.2 nM.
The matching figures for `CN(c1cncc(-c2ccc(C3CC3)cc2)n1)c1nc2nncn2c2cnccc12` [Example 57, N-[6-(4-cyclopropylphenyl)pyrazin-2-yl]-N-methyl-2,4,5,7,12-pentazatricyclo[7.4.0.02,6]trideca-1(13),3,5,7,9,11-hexaen-8-amine]: 130 nM and 9.91 nM.
For the compound `Cc1nnc2nc(N3CCCc4c(C#CC5(C(F)F)CC5)cccc43)c3cc(F)cnc3n12` [Example 100, 5-(5-((1-(difluoromethyl)cyclopropyl)ethynyl)-3,4-dihydroquinolin-1(2H)-yl)-3-fluoro-9-methylpyrido[3,2-e][1,2,4]triazolo[4,3-a]pyrimidine], the IC50 on human DGKα is 7.93 nM. Also, in assay [1], the EC50 was 2.26 nM.
